In patent publication US20250000881A1, “TREATMENT OF TREATMENT RESISTANT […] PSILOCYBIN” (COMPASS […], priority 2021, published 2025):

System: adult subjects with TRD
Assay: Phase 2b trial in TRD: safety, treatment emergent adverse events
Assay type: in vivo, human
Text: Another objective was to evaluate the safety and tolerability of psilocybin in subjects with TRD based on AEs, changes in vital signs, and suicidal ideation/behaviour (measured using the Columbia-Suicide Severity Rating Scale [C-SSRS]) score at all visits.
Throughout the course of the study, all adverse events (AEs) were monitored and recorded and included the AE's description, start and end date, seriousness, severity, action taken, and relationship to the treatment. If AEs occurred, the first concern was the safety of the study subjects.
An AE can therefore be any unfavorable and unintended sign (including an abnormal laboratory finding, for example), symptom, or disease temporally associated with the use of a medicinal product, whether considered related to the medicinal product.
AEs were coded by Preferred Term (PT) using the Medical Dictionary for Regulatory Activities (MedDRA) classification. All reported AEs with onset or worsening after the administration of study medication were included in the analysis. The incidence of AEs was summarized by treatment group, and by severity and relationship to psilocybin. Serious AEs and AEs leading to withdrawal from the study will be tabulated.
A TEAE is defined as any AE that has an onset on or after the dose of psilocybin, or any pre-existing condition that has worsened on or after the dose of psilocybin.
The incidence of TEAEs and treatment-related AEs were summarized by maximum severity and most-related relationship to psilocybin by MedDRA primary system organ class and PT. The summary included the total number and percentage of subjects reporting an event.

Structure (SMILES): CN(C)CCc1c[nH]c2cccc(OP(=O)(O)O)c12 [COMP360, psilocybin]
- Any TESAE, participants (1 mg (N = 79)): 1 (1.3) n (%)
- TEAE Abdominal pain upper, participants (1 mg (N = 79)): 1 (1.3) n (%)
- TEAE Anxiety, participants (1 mg (N = 79)): 3 (3.8) n (%)
- TEAE Back pain, participants (1 mg (N = 79)): 3 (3.8) n (%)
- TEAE Depressed mood, participants (1 mg (N = 79)): 4 (5.1) n (%)
- TEAE Depression, participants (1 mg (N = 79)): 5 (6.3) n (%)
- TEAE Dizziness, participants (1 mg (N = 79)): 1 (1.3) n (%)
- TEAE Euphoric mood, participants (1 mg (N = 79)): 4 (5.1) n (%)
- TEAE Fatigue, participants (1 mg (N = 79)): 7 (8.9) n (%)
- TEAE Headache, participants (1 mg (N = 79)): 20 (25.3) n (%)
- TEAE Insomnia, participants (1 mg (N = 79)): 14 (17.7) n (%)
- TEAE Irritability, participants (1 mg (N = 79)): 1 (1.3) n (%)
- TEAE Mood altered, participants (1 mg (N = 79)): 1 (1.3) n (%)
- TEAE Myalgia, participants (1 mg (N = 79)): 1 (1.3) n (%)
- TEAE Nausea, participants (1 mg (N = 79)): 4 (5.1) n (%)
- TEAE Panic reaction, participants (1 mg (N = 79)): 1 (1.3) n (%)
- TEAE Paraesthesia, participants (1 mg (N = 79)): 1 (1.3) n (%)
- TEAE Suicidal ideation, participants (1 mg (N = 79)): 4 (5.1) n (%)
- TEAE Thinking abnormal, participants (1 mg (N = 79)): 0 n (%)
- TESAE Adjustment disorder with anxiety, participants (1 mg (N = 79)): 0 n (%)
- TESAE Adjustment disorder with mixed anxiety and depressed mood, participants (1 mg (N = 79)): 0 n (%)
- TESAE Depression, participants (1 mg (N = 79)): 0 n (%)
- TESAE Drug withdrawal syndrome*, participants (1 mg (N = 79)): 0 n (%)
- TESAE Hospitalisation, participants (1 mg (N = 79)): 0 n (%)
- TESAE Intentional self-injury, participants (1 mg (N = 79)): 1 (1.3) n (%)
- TESAE Suicidal behaviour, participants (1 mg (N = 79)): 0 n (%)
- TESAE Suicidal ideation, participants (1 mg (N = 79)): 0 n (%)
- Patients with TEAEs of suicidal ideation, suicidal behaviour and intentional self-injury (1 mg group): four
- Patients with TESAEs of suicidal ideation, suicidal behaviour and intentional self-injury (1 mg group): one
- Any TESAE, participants (10 mg (N = 75)): 6 (8.0) n (%)
- TEAE Abdominal pain upper, participants (10 mg (N = 75)): 2 (2.7) n (%)
- TEAE Anxiety, participants (10 mg (N = 75)): 13 (17.3) n (%)
- TEAE Back pain, participants (10 mg (N = 75)): 0 n (%)
- TEAE Depressed mood, participants (10 mg (N = 75)): 5 (6.7) n (%)
- TEAE Depression, participants (10 mg (N = 75)): 6 (8.0) n (%)
- TEAE Dizziness, participants (10 mg (N = 75)): 1 (1.3) n (%)
- TEAE Euphoric mood, participants (10 mg (N = 75)): 5 (6.7) n (%)
- TEAE Fatigue, participants (10 mg (N = 75)): 5 (6.7) n (%)
- TEAE Headache, participants (10 mg (N = 75)): 16 (21.3) n (%)
- TEAE Insomnia, participants (10 mg (N = 75)): 11 (14.7) n (%)
- TEAE Irritability, participants (10 mg (N = 75)): 2 (2.7) n (%)
- TEAE Mood altered, participants (10 mg (N = 75)): 3 (4.0) n (%)
- TEAE Myalgia, participants (10 mg (N = 75)): 2 (2.7) n (%)
- TEAE Nausea, participants (10 mg (N = 75)): 7 (9.3) n (%)
- TEAE Panic reaction, participants (10 mg (N = 75)): 1 (1.3) n (%)
- TEAE Paraesthesia, participants (10 mg (N = 75)): 4 (5.3) n (%)
- TEAE Suicidal ideation, participants (10 mg (N = 75)): 5 (6.7) n (%)
- TEAE Thinking abnormal, participants (10 mg (N = 75)): 4 (5.3) n (%)
- TESAE Adjustment disorder with anxiety, participants (10 mg (N = 75)): 0 n (%)
- TESAE Adjustment disorder with mixed anxiety and depressed mood, participants (10 mg (N = 75)): 0 n (%)
- TESAE Depression, participants (10 mg (N = 75)): 1 (1.3) n (%)
- TESAE Drug withdrawal syndrome*, participants (10 mg (N = 75)): 0 n (%)
- TESAE Hospitalisation, participants (10 mg (N = 75)): 1 (1.3) n (%)
- TESAE Intentional self-injury, participants (10 mg (N = 75)): 2 (2.7) n (%)
- TESAE Suicidal behaviour, participants (10 mg (N = 75)): 0 n (%)
- TESAE Suicidal ideation, participants (10 mg (N = 75)): 2 (2.7) n (%)
- Patients with TEAEs of suicidal ideation, suicidal behaviour and intentional self-injury (10 mg group): six
- Patients with TESAEs of suicidal ideation, suicidal behaviour and intentional self-injury (10 mg group): four
- Any TESAE, participants (25 mg (N = 79)): 5 (6.3) n (%)
- TEAE Abdominal pain upper, participants (25 mg (N = 79)): 4 (5.1) n (%)
- TEAE Anxiety, participants (25 mg (N = 79)): 7 (8.9) n (%)
- TEAE Back pain, participants (25 mg (N = 79)): 6 (7.6) n (%)
- TEAE Depressed mood, participants (25 mg (N = 79)): 3 (3.8) n (%)
